Measurements taken from patent US6380196B1, “Dihydrobenzofurans” (Byk Gulden Lomberg Chemische Fabrik GmbH, priority 1997, dated 2002).
Structures can show the parent of a compound that is named as a salt.

Tested on: PDE4
Experiment: Inhibition of PDE 4 activity (method of Bauer and Schwabe, adapted to microtitre plates)
Type: biochemical
Experimental: The activity test was carried out according to the method of Bauer and Schwabe, which was adapted to microtitre plates (Naunyn-Schmiederberg's Arch. Pharmacol. 311, 193-198, 1980). In this test, the PDE reaction is carried out in the first step. In a second step, the resultant 5′-nucleotide is cleaved to the uncharged nucleoside by a snake venom 5′-nucleotidase from Crotalus Atrox. In the third step, the nucleoside is separated from the remaining charged substrate on ion exchange columns. The columns are eluted directly into minivials using 2 ml of 30 mM ammonium formate (pH 6.0), to which a further 2 ml of scintillation fluid is added for counting.
The inhibitory values determined for the compounds according to the invention follow from the following table A, in which the numbers of the compounds correspond to the numbers of the examples.

| SMILES | Inhibition of PDE4 activity [measured as -loglC50 (mol/l)] |
| --- | --- |
| COc1ccc(C2=NN(C3CCCCCC3)C(=O)[C@H]3CC=CC[C@@H]23)c2c1OC(C)(C)C2 (relative stereo) [Compound 25, (cis)-4-(2,3-Dihydro-2,2-dimethyl-7-methoxybenzofuran-4-yl)-2-cycloheptyl-4a,5,8,8a-tetrahydro-2H-phthalazin-1-one] | 9.01 |
| COc1ccc(C2=NN(c3ccccc3)C(=O)[C@H]3CC=CC[C@@H]23)c2c1OC(C)(C)C2 (relative stereo) [Compound 27, (cis)-4-(2,3-Dihydro-2,2-dimethyl-7-methoxybenzofuran-4-yl)-2-phenyl-4a,5,8,8a-tetrahydro-2H-phthalazin-1-one] | 8.74 |
| COc1ccc(C2=NNC(=O)C3CC=CCC23)c2c1OC1(CCCC1)C2 (stereo not drawn) [Compound 1, (cis)-4-(2,3-Dihydro-7-methoxybenzofuran-2-spiro-1′-cyclopentan-4-yl)-4a,5,8,8a-tetrahydro-2H-phthalazin-1-one] | 8.02 |
| COc1ccc(C2=NN(C3CCCC3)C(=O)C3CC=CCC23)c2c1OC1(CCCC1)C2 (stereo not drawn) [Compound 5, (cis)-4-(2,3-Dihydro-7-methoxybenzofuran-2-spiro-1′-cyclopentane-4-yl)-2-cyclopentyl-4a,5,8,8a-tetrahydro-2H-phthalazin-1-one] | 9.22 |
| COc1ccc(C2=NN(C3CCCCCC3)C(=O)C3CC=CCC23)c2c1OC1(CCCC1)C2 (stereo not drawn) [Compound 6, (cis)-4-(2,3-Dihydro-7-methoxybenzofuran-2-spiro-1′-cyclopentan-4-yl)-2-cycloheptyl-4a,5,8,8a-tetrahydro-2H-phthalazin-1-one] | 9.17 |
| COc1ccc(C2=NN(Cc3ccccc3)C(=O)C3CC=CCC23)c2c1OC1(CCCC1)C2 (stereo not drawn) [Compound 7, (cis)-4-(2,3-Dihydro-7-methoxybenzofuran-2-spiro-1′-cyclopentan-4-yl)-2-benzyl-4a,5,8,8a-tetrahydro-2H-phthalazin-1-one] | 8.93 |
| COc1ccc(C2=NN(c3ccccc3)C(=O)C3CC=CCC23)c2c1OC1(CCCC1)C2 (stereo not drawn) [Compound 8, (cis)-4-(2.3-Dihydro-7-methoxybenzofuran-2-spiro-1′-cyclopentan-4-yl)-2-phenyl-4a,5,8,8a-tetrahydro-2H-phthalazin-1-one] | 8.87 |
| COc1ccc(C2=NNC(=O)C3CCCCC23)c2c1OC1(CCCC1)C2 [Compound 9, (4aS, 8aR)-4-(2,3-Dihydro-7-methoxybenzofuran-2-spiro-1′-cyclopentan-4-yl)-4a,5,6,7,8,8a-hexahydro-2H-phthalazin-1-one] | 7.80 |
| COc1ccc(C2=NN(Cc3ccc(C(=O)O)cc3)C(=O)C3CCCCC23)c2c1OC1(CCCC1)C2 (stereo not drawn) [Compound 11, (cis)-4-(2,3-Dihydro-7-methoxybenzofuran-2-spiro-1′-cyclopentan-4-yl)-2-(4-carboxybenzyl)-4a,5,6,7,8,8a-hexahydro-2H-phthalazin-1-one] | 7.66 |
| COc1ccc(C2=NN(Cc3ccncc3)C(=O)C3CCCCC23)c2c1OC1(CCCC1)C2 (stereo not drawn) [Compound 12, (cis)-4-(2,3-Dihydro-7-methoxybenzofuran-2-spiro-1′-cyclopentan-4-yl)-2-(4-pyridylmethyl)-4a,5,6,7,8,8a-hexahydro-2H-phthalazin-1-one-hydrochloride] | 8.22 |
| COc1ccc(C2=NN(C3CCCCCC3)C(=O)C3CCCCC23)c2c1OC1(CCCC1)C2 (stereo not drawn) [Compound 13, (cis)-4-(2,3-Dihydro-7-methoxybenzofuran-2-spiro-1′-cyclopentan-4-yl)-2-cycloheptyl-4a,5,6,7,8,8a-hexahydro-2H-phthalazin-1-one] | 9.22 |
| COc1ccc(C2=NN(Cc3ccccc3)C(=O)C3CCCCC23)c2c1OC1(CCCC1)C2 (stereo not drawn) [Compound 14, (cis)-4-(2,3-Dihydro-7-methoxybenzofuran-2-spiro-1′-cyclopentan-4-yl)-2-benzyl-4a,5,6,7,8,8a-hexahydro-2H-phthalazin-1-one] | 8.62 |
| COc1ccc(C2=NN(CCO)C(=O)C3CC=CCC23)c2c1OC1(CCCC1)C2 (stereo not drawn) [Compound 17, (cis)-4-(2,3-Dihydro-7-methoxybenzofuran-2-spiro-1′-cyclopentan-4-yl-2-hydroxyethyl-4a,5,8,8a-tetrahydro-2H-phthalazin-1-one] | 8.36 |
| COc1ccc(C2=NN(CCCCn3ccnc3)C(=O)C3CC=CCC23)c2c1OC1(CCCC1)C2 (stereo not drawn) [Compound 22, (cis)-4(2,3-Dihydro-7-methoxybenzofuran-2-spiro-1′-cylopentan-4-yl)-2-[4-(imidazol-1yl)-1-butyl]-4a,5,8,8a-tetrahydro-phthalazin-1-one] | 8.82 |
| COc1ccc(C2=NN(c3ccc(C(=O)O)cc3)C(=O)C3CC=CCC23)c2c1OC1(CCCC1)C2 (stereo not drawn) [Compound 24, (cis)-4-(2,3-Dihydro-7-methoxybenzofuran-2-spiro-1′-cyclopentan-4-yl)-2-(p-carboxyphenyl)-4a,5,8,8a-tetrahydro-2H-phthalazin-1-one] | 9.38 |
| COc1ccc(C2=NN(Cc3ccccc3)C(=O)C3CC=CCC23)c2c1OC(C)(C)C2 (stereo not drawn) [Compound 26, (cis)-4-2,3-Dihydro-2,2-dimethyl-7-methoxybenzofuran-4-yl)-2-benzyl-4a,5,8,8a-tetrahydro-2H-phthalazin-1-one] | 8.72 |

Tested on: not given
Experiment: not given

| melting point | SMILES |
| --- | --- |
| 242 °C | COc1ccc(C2=NNC(=O)[C@H]3CC=CC[C@@H]23)c2c1OC(C)(C)C2 (relative stereo) |
